Measurements as given in PubChem BioAssay (NCI).
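GI50 is the concentration that inhibits growth by half. TGI is the concentration that stops growth completely.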

Columns and labels:
Experiment in all cases: NCI-60 cell line screen, 384-well format
[1] = system: A498 renal
[2] = system: A549 NSCLC
[3] = system: ACHN renal
[4] = system: BT-549 breast
[5] = system: CAKI-1 renal
[6] = system: COLO 205 colon
[7] = system: DU-145 prostate
[8] = system: EKVX NSCLC
[9] = system: HCC-2998 colon
[10] = system: HCT-116 colon
[11] = system: HCT-15 colon
[12] = system: HL-60(TB) leukemia
[13] = system: HOP-62 NSCLC
[14] = system: HOP-92 NSCLC
[15] = system: HS 578T breast
[16] = system: HT29 colon
[17] = system: IGROV1 ovarian
[18] = system: KM12 colon
[19] = system: LOX IMVI melanoma
[20] = system: M14 melanoma
[21] = system: MALME-3M melanoma
[22] = system: MCF7 breast
[23] = system: MDA-MB-231 breast
[24] = system: MDA-MB-435 melanoma
[25] = system: MDA-MB-468 breast
[26] = system: MOLT-4 leukemia
[27] = system: NCI-H226 lung
[28] = system: NCI-H23 lung
[29] = system: NCI-H322M lung
[30] = system: NCI-H460 NSCLC
[31] = system: NCI-H522 lung
[32] = system: NCI/ADR-RES ovarian
[33] = system: OVCAR-3 ovarian
[34] = system: OVCAR-4 ovarian
[35] = system: OVCAR-5 ovarian
[36] = system: OVCAR-8 ovarian
[37] = system: PC-3 prostate
[38] = system: RPMI-8226 leukemia
[39] = system: RXF 393 renal
[40] = system: SF-268 CNS
[41] = system: SF-295 CNS
[42] = system: SF-539 CNS
[43] = system: SK-MEL-28 melanoma
[44] = system: SK-MEL-5 melanoma
[45] = system: SK-OV-3 ovarian
[46] = system: SN12C renal
[47] = system: SNB-19 CNS
[48] = system: SNB-75 CNS
[49] = system: SR leukemia
[50] = system: T-47D breast
[51] = system: TK-10 renal
[52] = system: U251 glioblastoma
[53] = system: UACC-257 melanoma
[54] = system: UACC-62 melanoma

How did the GI50 [1] turn out when `Cn1ncc(Cl)c1-c1cc(C(=O)N[C@H](CN)Cc2cccc(F)c2)sc1Cl` was run?
Its GI50 is 0.126 µM.

What about the TGI [1] of the same compound?
The TGI was 1.24 µM.

What about the GI50 [2] of the same compound?
The GI50 was 4.01 µM.

And the TGI [2]?
Its TGI is 16.4 µM.

What about the GI50 [3] of the same compound?
The GI50 was 3.46 µM.

And the TGI [3]?
The TGI was 15.5 µM.

And the GI50 [4]?
The GI50 was 0.819 µM.

And the TGI [4]?
Its TGI is 2.45 µM.

What about the GI50 [5] of the same compound?
The GI50 was 2.76 µM.

And the TGI [5]?
The TGI was 14 µM.

And the GI50 [6]?
Its GI50 is 1.12 µM.

And the TGI [6]?
The TGI was 2.36 µM.

And the GI50 [7]?
The GI50 was 3.38 µM.

And the TGI [7]?
Its TGI is 14.6 µM.

What about the GI50 [8] of the same compound?
The GI50 was 2.94 µM.

And the TGI [8]?
Its TGI is 12.5 µM.

What about the GI50 [9] of the same compound?
The GI50 was 0.558 µM.

What about the TGI [9] of the same compound?
The TGI was 2.01 µM.

What about the GI50 [10] of the same compound?
The GI50 was 2.28 µM.

What about the TGI [10] of the same compound?
Its TGI is 7.53 µM.

What about the GI50 [11] of the same compound?
The GI50 was 1.76 µM.

What about the TGI [11] of the same compound?
Its TGI is 13.1 µM.

And the GI50 [12]?
Its GI50 is 1.32 µM.

What about the TGI [12] of the same compound?
The TGI was 2.7 µM.

And the GI50 [13]?
Its GI50 is 2.31 µM.

What about the TGI [13] of the same compound?
Its TGI is 6.22 µM.

What about the GI50 [14] of the same compound?
Its GI50 is 2.09 µM.

What about the TGI [14] of the same compound?
Its TGI is 8.6 µM.

What about the GI50 [15] of the same compound?
Its GI50 is 1.01 µM.

And the TGI [15]?
The TGI was 2.56 µM.

What about the GI50 [16] of the same compound?
Its GI50 is 1.15 µM.

And the TGI [16]?
The TGI was 2.89 µM.

And the GI50 [17]?
Its GI50 is 0.0436 µM.

What about the TGI [17] of the same compound?
The TGI was 0.534 µM.

What about the GI50 [18] of the same compound?
Its GI50 is 0.532 µM.

What about the TGI [18] of the same compound?
The TGI was 2.21 µM.

What about the GI50 [19] of the same compound?
The GI50 was 1.75 µM.

What about the TGI [19] of the same compound?
Its TGI is 3.23 µM.

What about the GI50 [20] of the same compound?
Its GI50 is 1.71 µM.

What about the TGI [20] of the same compound?
The TGI was 3.15 µM.

What about the GI50 [21] of the same compound?
Its GI50 is 1.3 µM.

What about the TGI [21] of the same compound?
The TGI was 2.59 µM.

What about the GI50 [22] of the same compound?
Its GI50 is 0.46 µM.

What about the TGI [22] of the same compound?
The TGI was 2 µM.

What about the GI50 [23] of the same compound?
Its GI50 is 5.95 µM.

What about the TGI [23] of the same compound?
Its TGI is 18.8 µM.

What about the GI50 [24] of the same compound?
The GI50 was 2.01 µM.

And the TGI [24]?
Its TGI is 5.43 µM.

And the GI50 [25]?
Its GI50 is 0.187 µM.

And the TGI [25]?
The TGI was 1.95 µM.

What about the GI50 [26] of the same compound?
Its GI50 is 0.15 µM.

What about the TGI [26] of the same compound?
The TGI was 1.12 µM.

And the GI50 [27]?
The GI50 was 2.93 µM.

And the TGI [27]?
The TGI was 9.22 µM.

What about the GI50 [28] of the same compound?
Its GI50 is 3.2 µM.

What about the TGI [28] of the same compound?
The TGI was 11.7 µM.

What about the GI50 [29] of the same compound?
The GI50 was 2.15 µM.

And the TGI [29]?
The TGI was 10.9 µM.

What about the GI50 [30] of the same compound?
Its GI50 is 0.427 µM.

And the TGI [30]?
Its TGI is 2.67 µM.

And the GI50 [31]?
Its GI50 is 1.9 µM.

What about the TGI [31] of the same compound?
The TGI was 5.36 µM.

What about the GI50 [32] of the same compound?
Its GI50 is 7.07 µM.

What about the TGI [32] of the same compound?
Its TGI is 19.9 µM.

And the GI50 [33]?
Its GI50 is 2.02 µM.

What about the TGI [33] of the same compound?
Its TGI is 10.5 µM.

What about the GI50 [34] of the same compound?
Its GI50 is 6 µM.

And the TGI [34]?
The TGI was 18.9 µM.

And the GI50 [35]?
The GI50 was 1.62 µM.

And the TGI [35]?
The TGI was 4.29 µM.

And the GI50 [36]?
The GI50 was 2.11 µM.

What about the TGI [36] of the same compound?
The TGI was 5.32 µM.

And the GI50 [37]?
Its GI50 is 0.3 µM.

And the TGI [37]?
The TGI was 2.69 µM.

And the GI50 [38]?
The GI50 was 1.76 µM.

What about the TGI [38] of the same compound?
The TGI was 3.18 µM.

What about the GI50 [39] of the same compound?
Its GI50 is 0.68 µM.

And the TGI [39]?
Its TGI is 2.56 µM.

What about the GI50 [40] of the same compound?
The GI50 was 4.5 µM.

And the TGI [40]?
Its TGI is 15.3 µM.

And the GI50 [41]?
The GI50 was 1.07 µM.

And the TGI [41]?
The TGI was 2.33 µM.

What about the GI50 [42] of the same compound?
Its GI50 is 0.337 µM.

What about the TGI [42] of the same compound?
The TGI was 2.14 µM.

What about the GI50 [43] of the same compound?
The GI50 was 1.33 µM.

And the TGI [43]?
Its TGI is 2.67 µM.

And the GI50 [44]?
Its GI50 is 1.39 µM.

And the TGI [44]?
The TGI was 2.7 µM.

What about the GI50 [45] of the same compound?
The GI50 was 0.737 µM.

What about the TGI [45] of the same compound?
The TGI was 8.04 µM.

And the GI50 [46]?
The GI50 was 2.67 µM.

What about the TGI [46] of the same compound?
The TGI was 14.4 µM.

And the GI50 [47]?
Its GI50 is 1.74 µM.

And the TGI [47]?
Its TGI is 10.2 µM.

And the GI50 [48]?
Its GI50 is 0.449 µM.

And the TGI [48]?
The TGI was 3.66 µM.

And the GI50 [49]?
Its GI50 is 1.35 µM.

What about the TGI [49] of the same compound?
The TGI was 2.64 µM.

And the GI50 [50]?
Its GI50 is 0.274 µM.

And the TGI [50]?
Its TGI is 2.05 µM.

And the GI50 [51]?
Its GI50 is 1.18 µM.

What about the TGI [51] of the same compound?
Its TGI is 5.47 µM.

And the GI50 [52]?
The GI50 was 1.11 µM.

And the TGI [52]?
The TGI was 2.43 µM.

What about the GI50 [53] of the same compound?
The GI50 was 1.46 µM.

What about the TGI [53] of the same compound?
Its TGI is 2.79 µM.

What about the GI50 [54] of the same compound?
The GI50 was 1.29 µM.

And the TGI [54]?
The TGI was 2.97 µM.
